Data taken from ChEMBL document CHEMBL5390303, “Discovery of Potent and Oral Bioavailable MAT2A Inhibitors for the Treatment of MTAP-Deleted Tumors” (ACS Med Chem Lett, 2023).
Blank lines part the entries; values can stand above or below the compound they belong to.

Key:
HCT-116 [1] = test: Antitumor activity against MTAP-knockout human HCT-116 cells xenografted in Nu/Nu mouse model assessed as inhibition of tumor growth at 50 mg/kg, po qd measured after 21 days relative to control; type: functional; conditions: HCT-116, 504 h, time 21 day, read-out: TGI
[2] = molecular target: S-adenosylmethionine synthase isoform type-2 (Homo sapiens, UniProt P31153); test: Inhibition of MAT2A (unknown origin) using L-methionine as substrate preincubated for 30 mins followed by substrate addition measured after 60 mins by colorimetric assay
[3] = Cmax in male Sprague-Dawley rat plasma at 10 mg/kg, po incubated for 24 hrs by LC-MS/MS analysis; type: ADME, organism-based; parameters: time 24 hrs, dose 10 mg/kg, route po
[4] = AUClast in male Beagle dog at 3 mg/kg, po incubated for 24 hrs by LC-MS/MS analysis; type: ADME, organism-based, Canis lupus familiaris; parameters: dose 3 mg/kg, time 24 hrs, route po; conditions: in vivo
[5] = Half life in male Sprague-Dawley rat plasma at 10 mg/kg, po incubated for 24 hrs by LC-MS/MS analysis; type: ADME, organism-based
[6] = Tmax in ICR mouse plasma at 10 mg/kg, IG measured after 24 hrs by LC-MS/MS analysis; type: ADME, organism-based; conditions: po
HCT-116 [7] = test: Antitumor activity against MTAP-knockout human HCT-116 cells xenografted in Nu/Nu mouse model assessed as tumor growth inhibition at 20 mg/kg, po qd measured after 21 days relative to control; type: functional; conditions: HCT-116, 504 h, time 21 day, read-out: TGI
Cytochrome P450 2C19 = Cytochrome P450 2C19 (Homo sapiens, UniProt P33261); test: Inhibition of human liver microsomes CYP2C19 incubated for 5 mins with compound followed by substrate and NADPH addition measured after 10 mins by LC-MS/MS analysis; type: ADME, Microsome
[8] = Half life in male Beagle dog at 3 mg/kg, po incubated for 24 hrs by LC-MS/MS analysis; type: ADME, organism-based, Canis lupus familiaris; conditions: in vivo
[9] = Cmax in male Beagle dog at 3 mg/kg, po incubated for 24 hrs by LC-MS/MS analysis; type: ADME, organism-based, Canis lupus familiaris; parameters: dose 3 mg/kg, time 24 hrs, route po; conditions: in vivo
HCT-116 [10] = test: Antitumor activity against MTAP-knockout human HCT-116 cells xenografted in Nu/Nu mouse model assessed as tumor growth inhibition at 10 mg/kg, po qd measured after 21 days relative to control; type: functional; conditions: HCT-116, 504 h, time 21 day, read-out: TGI
Cytochrome P450 2C9 = Cytochrome P450 2C9 (Homo sapiens, UniProt P11712); test: Inhibition of human liver microsomes CYP2C9 using Diclofenac as substrate incubated for 5 mins with compound followed by substrate and NADPH addition measured after 10 mins by LC-MS/MS analysis; type: ADME, Microsome
[11] = Plasma protein binding in rat assessed as unbound fraction at 1 uM incubated for 6 hrs by LC-MS/MS based rapid equlibrium dialysis method; type: ADME, cell-free
[12] = Plasma protein binding in dog assessed as unbound fraction at 1 uM incubated for 6 hrs by LC-MS/MS based rapid equlibrium dialysis method; type: ADME, cell-free, Canis lupus familiaris
[13] = AUC(0 to last) in male Sprague-Dawley rat at 10 mg/kg, po incubated for 24 hrs by LC-MS/MS analysis; type: ADME, organism-based; parameters: dose 10 mg/kg, time 24 hrs, route po; conditions: in vivo
[14] = Plasma protein binding in mouse assessed as unbound fraction at 1 uM incubated for 6 hrs by LC-MS/MS based rapid equlibrium dialysis method; type: ADME, cell-free
[15] = Tmax in male Sprague-Dawley rat plasma at 10 mg/kg, po incubated for 24 hrs by LC-MS/MS analysis; type: ADME, organism-based
HCT-116 [16] = test: Antiproliferative activity against MTAP knockout human HCT-116 assessed as inhibition of cell proliferation incubated for 6 days by alamar blue reagent based analysis; type: functional; conditions: HCT-116, 144 h
[17] = Toxicity in Nu/Nu mouse xenografted with MTAP-knockout human HCT-116 cells assessed as maximum body weight loss at 10 to 20 mg/kg, po qd measured after 21 days; type: organism-based; conditions: in vivo, 504 h, dose 10-20 mg/kg, time 21 day
[18] = Metabolic stability in human liver microsomes assessed as intrinsic clearance; type: ADME, Microsome; conditions: read-out: CLH
[19] = Half life in ICR mouse plasma at 10 mg/kg, IG measured after 24 hrs by LC-MS/MS analysis; type: ADME, organism-based; conditions: po
[20] = Tmax in male Beagle dog at 3 mg/kg, po incubated for 24 hrs by LC-MS/MS analysis; type: ADME, organism-based, Canis lupus familiaris; conditions: in vivo
[21] = AUClast in ICR mouse plasma at 10 mg/kg, IG incubated for 24 hrs by LC-MS/MS analysis; type: ADME, organism-based; parameters: dose 10 mg/kg, time 24 hrs, route ig; conditions: po
HCT-116 [22] = test: Antitumor activity against MTAP-knockout human HCT-116 cells xenografted in Nu/Nu mouse model assessed as reduction in SAM concentration at 20 mg/kg, po qd administered for 21 days measured after 10 hrs post last dose relative to control; type: functional; parameters: scale not given: the % may be the effect or the level left; conditions: time 514 hrs
[23] = Plasma protein binding in human assessed as unbound fraction at 1 uM incubated for 6 hrs by LC-MS/MS based rapid equlibrium dialysis method relative to control; type: ADME, cell-free
Cytochrome P450 3A4 = Cytochrome P450 3A4 (Homo sapiens, UniProt P08684); test: Inhibition of human liver microsomes CYP3A4 using Midazolam as substrate incubated for 5 mins with compound followed by substrate and NADPH addition measured after 5 mins by LC-MS/MS analysis; type: ADME, Microsome
[24] = Cmax in ICR mouse plasma at 10 mg/kg, IG measured after 24 hrs by LC-MS/MS analysis; type: ADME, organism-based; parameters: dose 10 mg/kg, time 24 hrs, route ig; conditions: po
Cytochrome P450 2D6 = Cytochrome P450 2D6 (Homo sapiens, UniProt P10635); test: Inhibition of human liver microsomes CYP2D6 using Dextromethorphan as substrate incubated for 5 mins with compound followed by substrate and NADPH addition measured after 10 mins by LC-MS/MS analysis; type: ADME, Microsome
Sequence of Cytochrome P450 2D6 (P10635 whole entry): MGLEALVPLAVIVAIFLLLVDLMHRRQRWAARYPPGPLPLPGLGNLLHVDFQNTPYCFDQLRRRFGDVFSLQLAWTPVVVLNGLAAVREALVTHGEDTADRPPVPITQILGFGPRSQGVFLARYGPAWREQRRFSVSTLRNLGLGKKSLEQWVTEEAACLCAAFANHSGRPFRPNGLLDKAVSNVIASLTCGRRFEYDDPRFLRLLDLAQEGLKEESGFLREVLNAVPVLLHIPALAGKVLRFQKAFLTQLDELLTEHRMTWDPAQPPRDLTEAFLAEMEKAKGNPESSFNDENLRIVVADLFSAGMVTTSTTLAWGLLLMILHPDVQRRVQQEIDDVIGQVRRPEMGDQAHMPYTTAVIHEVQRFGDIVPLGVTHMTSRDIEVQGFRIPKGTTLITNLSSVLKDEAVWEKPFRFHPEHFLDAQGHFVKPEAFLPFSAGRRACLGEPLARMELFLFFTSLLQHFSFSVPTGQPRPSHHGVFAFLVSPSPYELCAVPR

Sequence of S-adenosylmethionine synthase isoform type-2 (P31153 whole entry, canonical isoform): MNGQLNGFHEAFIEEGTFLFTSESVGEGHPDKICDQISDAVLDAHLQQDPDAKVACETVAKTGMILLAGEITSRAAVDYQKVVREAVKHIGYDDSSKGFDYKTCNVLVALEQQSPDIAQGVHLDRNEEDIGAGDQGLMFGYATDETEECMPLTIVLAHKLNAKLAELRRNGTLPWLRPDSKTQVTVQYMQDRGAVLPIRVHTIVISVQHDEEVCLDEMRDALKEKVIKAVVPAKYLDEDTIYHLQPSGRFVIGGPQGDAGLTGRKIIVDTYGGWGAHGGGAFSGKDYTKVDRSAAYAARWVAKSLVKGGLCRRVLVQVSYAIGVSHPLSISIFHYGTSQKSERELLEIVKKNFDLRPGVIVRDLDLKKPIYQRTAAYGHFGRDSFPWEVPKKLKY
Sequence of Cytochrome P450 3A4 (P08684 whole entry): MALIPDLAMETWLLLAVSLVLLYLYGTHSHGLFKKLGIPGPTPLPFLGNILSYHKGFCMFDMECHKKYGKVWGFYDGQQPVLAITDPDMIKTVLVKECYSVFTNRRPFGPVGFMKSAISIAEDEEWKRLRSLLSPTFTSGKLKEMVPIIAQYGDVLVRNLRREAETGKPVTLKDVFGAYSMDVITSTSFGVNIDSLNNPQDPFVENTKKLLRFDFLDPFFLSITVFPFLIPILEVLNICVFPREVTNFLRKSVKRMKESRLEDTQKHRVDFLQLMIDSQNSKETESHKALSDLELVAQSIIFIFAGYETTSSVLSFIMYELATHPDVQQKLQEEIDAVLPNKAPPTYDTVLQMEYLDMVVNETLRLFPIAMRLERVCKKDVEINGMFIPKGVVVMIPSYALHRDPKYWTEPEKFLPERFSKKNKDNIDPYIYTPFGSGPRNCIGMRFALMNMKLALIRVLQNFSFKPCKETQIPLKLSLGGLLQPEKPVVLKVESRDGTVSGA
Sequence of Cytochrome P450 2C9 (P11712 whole entry): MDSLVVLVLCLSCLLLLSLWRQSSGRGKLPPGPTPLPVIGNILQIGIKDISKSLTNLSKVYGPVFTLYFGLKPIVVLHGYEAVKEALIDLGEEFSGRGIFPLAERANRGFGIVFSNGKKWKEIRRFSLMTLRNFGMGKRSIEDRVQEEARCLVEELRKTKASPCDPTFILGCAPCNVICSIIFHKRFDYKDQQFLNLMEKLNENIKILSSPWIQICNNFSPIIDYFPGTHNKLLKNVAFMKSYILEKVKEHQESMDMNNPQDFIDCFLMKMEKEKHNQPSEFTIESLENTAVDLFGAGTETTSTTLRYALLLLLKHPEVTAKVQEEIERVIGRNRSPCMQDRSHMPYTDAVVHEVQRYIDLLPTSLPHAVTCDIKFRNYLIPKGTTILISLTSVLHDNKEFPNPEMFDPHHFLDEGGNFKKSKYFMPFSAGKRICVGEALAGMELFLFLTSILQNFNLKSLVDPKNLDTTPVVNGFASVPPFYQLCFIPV
Sequence of Cytochrome P450 2C19 (P33261 whole entry): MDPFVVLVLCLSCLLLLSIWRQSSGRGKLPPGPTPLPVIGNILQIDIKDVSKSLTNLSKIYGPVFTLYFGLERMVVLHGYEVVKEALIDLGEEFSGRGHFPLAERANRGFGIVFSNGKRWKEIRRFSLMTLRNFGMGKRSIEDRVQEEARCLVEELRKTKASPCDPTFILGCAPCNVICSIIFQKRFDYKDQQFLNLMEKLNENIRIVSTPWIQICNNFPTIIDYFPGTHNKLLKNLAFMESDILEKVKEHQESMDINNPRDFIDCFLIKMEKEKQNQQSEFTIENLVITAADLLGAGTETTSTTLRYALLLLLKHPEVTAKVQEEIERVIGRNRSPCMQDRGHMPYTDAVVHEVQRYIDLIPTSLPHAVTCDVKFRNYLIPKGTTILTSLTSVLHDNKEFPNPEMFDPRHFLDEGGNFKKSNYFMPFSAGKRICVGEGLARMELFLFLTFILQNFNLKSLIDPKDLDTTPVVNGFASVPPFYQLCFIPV

Compound: COc1ccc(-c2c(Nc3ccccn3)[nH]c3c(C4=CCCCC4)c(-c4ccccc4)nn3c2=O)cc1
inhibition in vivo at 50 mg/kg (HCT-116 [1]): 43%

IC50 [2]: 49 nM
Compound: CNc1nc(=O)c(-c2ccccc2Cl)c2cc(C(F)F)ccn12

IC50 [2]: 120 nM
Compound: O=c1nc(NC2CC2)n2ccc(C(F)(F)F)cc2c1-c1ccccc1F

IC50 [2]: 107 nM
Compound: CNc1nc(=O)c(-c2cccc(Cl)c2)c2cc(C(F)(F)F)ccn12

IC50 [2]: 60 nM
Compound: CNc1nc(=O)c(-c2cccc(C)c2)c2cc(C(F)(F)F)ccn12

IC50 [2]: 143 nM
Compound: CNc1nc(=O)c(-c2ccccc2Cl)c2cc(C)ccn12

IC50 [2]: 2550 nM
Compound: O=C(C1CC1)N1CC(=O)N(c2ccccc2Cl)c2cc(C(F)(F)F)ccc21

IC50 [2]: 80 nM
Compound: CC(C)Nc1nc(=O)c(-c2ccccc2F)c2cc(C(F)(F)F)ccn12

Cmax [3]: 2820 ng/mL
AUC(0-t) at 24 h [4]: 9310 ng·h/mL
half-life [5]: 3 h
Tmax [6]: 0.67 h
IC50 (Cytochrome P450 2C19): > 10000 nM
half-life [8]: 2.6 h
Cmax [9]: 1680 ng/mL
IC50 (Cytochrome P450 2C9): > 10000 nM
IC50 [2]: 40 nM
fraction unbound at 6 h, 1 µM [11]: 0.329
fraction unbound at 6 h, 1 µM [12]: 0.325
AUC(0-t) at 24 h [13]: 16200 ng·h/mL
fraction unbound at 6 h, 1 µM [14]: 0.091
Tmax [15]: 3.3 h
IC50 (HCT-116 [16]): 273 nM
CLint scaled [18]: 1.4 mL/min/kg
half-life [19]: 3.3 h
Tmax [20]: 1.3 h
AUC(0-t) at 24 h [21]: 34000 ng·h/mL
fraction unbound at 6 h, 1 µM [23]: 0.216
IC50 (Cytochrome P450 3A4): > 10000 nM
Cmax [24]: 16200 ng/mL
IC50 (Cytochrome P450 2D6): > 10000 nM
Compound: O=c1nc(NC2CC2)n2ccc(C(F)(F)F)cc2c1-c1cccnc1F
inhibition in vivo at 20 mg/kg (HCT-116 [7]): 60%
inhibition in vivo at 10 mg/kg (HCT-116 [10]): 48%
Activity [17]: 11%
Activity (HCT-116 [22]): 79%

IC50 [2]: 45 nM
Compound: CNc1nc(=O)c(-c2ccccc2F)c2cc(C(F)(F)F)ccn12

IC50 [2]: > 10000 nM
Compound: CNc1nc(=O)c(-c2ccccc2Cl)c2cc(C(F)(F)F)cnn12

IC50 [2]: 42 nM
Compound: CNc1nc(=O)c(-c2cccc(F)c2)c2cc(C(F)(F)F)ccn12

IC50 [2]: 65 nM
Compound: CNc1nc(=O)c(-c2ccccc2)c2cc(C(F)(F)F)ccn12

IC50 [2]: 347 nM
Compound: CNc1nc(=O)c(-c2ccc(C)cc2)c2cc(C(F)(F)F)ccn12

IC50 [2]: 49 nM
Compound: CNc1nc(=O)c(-c2ccccc2Cl)c2cc(C(F)(F)F)ccn12

IC50 [2]: 65 nM
Compound: CNc1nc(=O)c(-c2c(F)cccc2F)c2cc(C(F)(F)F)ccn12

IC50 [2]: 268 nM
Compound: CNc1nc(=O)n(-c2ccccc2Cl)c2cc(C(F)(F)F)sc12

IC50 [2]: 53 nM
Compound: CNc1nc(=O)c(-c2ccccc2Cl)c2cc(C3CC3)ccn12

IC50 [2]: 199 nM
Compound: CNc1nc(=O)c(-c2cccc(C#N)c2)c2cc(C(F)(F)F)ccn12

IC50 [2]: 46 nM
Compound: O=c1nc(NC2CC2)n2ccc(C(F)(F)F)cc2c1-c1cccc(F)c1

IC50 [2]: 121 nM
Compound: O=c1nc(NC2CCC2)n2ccc(C(F)(F)F)cc2c1-c1ccccc1F

IC50 [2]: > 10000 nM
Compound: CNc1nc(=O)n(-c2ccccc2Cl)c2c1CCN(C)C2

IC50 [2]: 119 nM
Compound: O=c1nc(NCC(F)F)n2ccc(C(F)(F)F)cc2c1-c1ccccc1F

IC50 [2]: 252 nM
Compound: CNc1cc(=O)n(-c2ccccc2Cl)c2nc(C(F)(F)F)ccc12

IC50 [2]: 531 nM
Compound: O=c1nc(N2CCCC2)n2ccc(C(F)(F)F)cc2c1-c1ccccc1F

IC50 [2]: 192 nM
Compound: O=c1nc(N[C@H]2C[C@H](O)C2)n2ccc(C(F)(F)F)cc2c1-c1ccccc1F

Tmax [6]: 0.33 h
IC50 [2]: 31 nM
half-life [19]: 7.7 h
AUC(0-t) at 24 h [21]: 8880 ng·h/mL
Cmax [24]: 3960 ng/mL
Compound: O=c1nc(NC2CC2)n2ccc(C(F)(F)F)cc2c1-c1cccc(O)c1F

IC50 [2]: 68 nM
Compound: CNc1nc(=O)c(-c2ccccc2C(C)C)c2cc(C(F)(F)F)ccn12
